Measured values published in US20200239530A1, “COMPOUNDS AND METHODS OF MODULATING PROTEIN DEGRADATION” (Vividion Therapeutics, Inc., priority 2017, published 2020).

Tests used:
[1] = target: T1, RPS6KA1 Ribosomal protein S6 kinase alpha-1 (Homo sapiens, UniProt Q15418); assay: Cysteine liganding, probe competition; format: binding
T1 construct: Cells were resuspended in cold PBS on ice and sonicated with a probe sonicator to achieve lysis; endogenous in cells
Outline: (§1)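 Lysates from probe-sonicated cells in PBS (5 mg/ml proteome) were exposed to compound for 1 hr at 25° C, then labelled with desthiobiotin iodoacetamide probe (10 mM stock) for 1 hr at 25° C. Probe-tagged peptides were streptavidin-enriched after trypsin digestion.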

[2] = target: T2, TAP2 Antigen peptide transporter 2 (Homo sapiens, UniProt Q03519); assay: Cysteine liganding, probe competition; format: binding; settings: for Liganded: TAP2 Res# 641, uniprot Q03519
T2 construct: Cells were resuspended in cold PBS on ice and sonicated with a probe sonicator to achieve lysis; endogenous in cells
T2 sequence (Q03519 1-686): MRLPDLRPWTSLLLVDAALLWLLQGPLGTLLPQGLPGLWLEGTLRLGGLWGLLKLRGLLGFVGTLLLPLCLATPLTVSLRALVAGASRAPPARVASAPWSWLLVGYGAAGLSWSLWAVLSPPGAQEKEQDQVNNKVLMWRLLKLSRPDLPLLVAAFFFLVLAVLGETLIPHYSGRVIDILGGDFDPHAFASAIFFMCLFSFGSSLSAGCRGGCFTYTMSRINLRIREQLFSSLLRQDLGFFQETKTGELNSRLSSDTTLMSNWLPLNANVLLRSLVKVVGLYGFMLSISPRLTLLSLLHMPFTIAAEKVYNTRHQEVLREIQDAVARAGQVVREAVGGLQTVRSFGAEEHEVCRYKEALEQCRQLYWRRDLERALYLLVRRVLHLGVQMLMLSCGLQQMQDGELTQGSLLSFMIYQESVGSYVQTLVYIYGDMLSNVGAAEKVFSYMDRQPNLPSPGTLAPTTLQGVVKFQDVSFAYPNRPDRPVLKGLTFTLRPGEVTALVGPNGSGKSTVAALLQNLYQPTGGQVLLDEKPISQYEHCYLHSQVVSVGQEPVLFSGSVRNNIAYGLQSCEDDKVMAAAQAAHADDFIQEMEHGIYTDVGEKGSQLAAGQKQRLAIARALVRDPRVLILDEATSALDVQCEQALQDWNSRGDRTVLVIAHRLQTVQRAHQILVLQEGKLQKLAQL
T2 sequence (Q03518 1-748 partner): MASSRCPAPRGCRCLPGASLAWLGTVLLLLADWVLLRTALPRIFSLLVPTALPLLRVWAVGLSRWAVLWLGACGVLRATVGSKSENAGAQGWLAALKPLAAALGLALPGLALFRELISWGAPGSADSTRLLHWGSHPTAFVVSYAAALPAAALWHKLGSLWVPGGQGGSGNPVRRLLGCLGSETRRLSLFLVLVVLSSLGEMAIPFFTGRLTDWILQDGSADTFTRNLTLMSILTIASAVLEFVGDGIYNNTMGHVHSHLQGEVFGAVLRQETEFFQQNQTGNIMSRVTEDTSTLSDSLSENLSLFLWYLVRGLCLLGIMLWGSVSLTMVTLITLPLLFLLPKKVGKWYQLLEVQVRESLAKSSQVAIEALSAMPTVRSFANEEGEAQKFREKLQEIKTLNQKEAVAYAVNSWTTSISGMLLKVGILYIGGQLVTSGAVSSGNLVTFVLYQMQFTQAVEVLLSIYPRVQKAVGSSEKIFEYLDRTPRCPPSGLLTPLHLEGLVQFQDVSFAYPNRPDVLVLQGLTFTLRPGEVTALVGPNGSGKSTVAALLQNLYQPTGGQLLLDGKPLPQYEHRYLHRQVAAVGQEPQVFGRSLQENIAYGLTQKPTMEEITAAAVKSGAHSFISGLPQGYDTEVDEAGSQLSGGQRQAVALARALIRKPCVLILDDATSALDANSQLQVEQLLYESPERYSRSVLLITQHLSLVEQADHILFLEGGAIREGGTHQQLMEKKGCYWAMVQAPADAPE
Outline: as §1

T1 sequence (Q15418 whole entry): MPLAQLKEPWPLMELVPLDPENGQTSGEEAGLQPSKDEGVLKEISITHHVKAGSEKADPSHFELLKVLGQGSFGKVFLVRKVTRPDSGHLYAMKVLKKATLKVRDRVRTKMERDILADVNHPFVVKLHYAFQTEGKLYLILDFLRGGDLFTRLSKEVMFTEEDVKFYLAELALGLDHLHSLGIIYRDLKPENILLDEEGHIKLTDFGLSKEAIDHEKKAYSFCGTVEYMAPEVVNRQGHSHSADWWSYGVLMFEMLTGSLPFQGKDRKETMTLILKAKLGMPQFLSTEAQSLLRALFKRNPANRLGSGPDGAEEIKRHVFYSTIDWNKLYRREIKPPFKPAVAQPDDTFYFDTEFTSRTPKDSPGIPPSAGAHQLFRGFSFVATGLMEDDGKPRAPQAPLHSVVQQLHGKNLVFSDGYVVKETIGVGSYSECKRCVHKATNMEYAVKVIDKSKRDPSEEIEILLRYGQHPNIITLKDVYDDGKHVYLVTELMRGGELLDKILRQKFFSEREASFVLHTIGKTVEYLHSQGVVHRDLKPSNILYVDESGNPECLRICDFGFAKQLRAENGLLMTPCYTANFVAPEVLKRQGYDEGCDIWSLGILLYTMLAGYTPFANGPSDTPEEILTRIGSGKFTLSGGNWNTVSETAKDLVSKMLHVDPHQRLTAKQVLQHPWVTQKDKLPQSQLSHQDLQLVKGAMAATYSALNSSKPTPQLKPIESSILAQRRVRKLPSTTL

SMILES | Liganded ([1]; RPS6KA1 Res# 223, uniprot Q15418) | Liganded [2] | 100 Max ([1]; uniprot Q15418) | 100 ave ([1]; uniprot Q15418) | 500 ave ([1]; uniprot Q15418) | 500 Max ([1]; uniprot Q15418, in % (unit assumed)) | 100 ave ([2]; uniprot Q03519) | 500 Max ([2]; uniprot Q03519) | 500 ave ([2]; uniprot Q03519) | 100 Max ([2]; uniprot Q03519, in % (unit assumed))
COc1ccc2c(c1)CCCN2C(=O)CCl [KB02] | YES | YES | – | – | – | – | – | – | – | –
O=C(CCl)Nc1cc(C(F)(F)F)cc(C(F)(F)F)c1 [KBO3] | – | YES | 1.03 | 1.03 | 30.61 | 30.61 | 70.57 | 94.0932 | 94.0932 | 71.9622
